Results: the supplement of paper PMC10307832

Experiments:
Test in all cases: relative viability (nuclei count vs DMSO), 5 days (fraction); higher = more cells survive
[1] = compound: C[As](C)SC[C@H](NC(=O)CC[C@H](N)C(=O)O)C(=O)NCC(=O)O [Darinaparsin] + Nc1nc2[nH]cc(CCc3ccc(C(=O)N[C@@H](CCC(=O)O)C(=O)O)cc3)c2c(=O)[nH]1 [Pemetrexed] (partner 0.2 µM)
Method in brief: (§1)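 Values are medians from duplicate plates. Each reflects relative viability, defined as the nuclei count of treated wells over that of vehicle wells. Lung cancer cell lines in 1536-well plates were pin-tool dosed one day after seeding with one drug alone or with a fixed anchor-drug dose plus five library-drug doses (not always all listed) in √10 steps, then fixed, stained and imaged at 4× after 5 days.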

[2] = compound: C1CC2=C(C1)C=C(C=C2)OC3=NC(=C4C(=N3)N(C=N4)CC5=CC=C(C=C5)C6=CC=CC=C6)N[C@@H](CC7=CC=CC=C7)CO [QS11] + CC1(C)CCC(c2ccc(Cl)cc2)=C(CN2CCN(c3ccc(C(=O)NS(=O)(=O)c4ccc(N[C@H](CCN5CCOCC5)CSc5ccccc5)c(S(=O)(=O)C(F)(F)F)c4)cc3)CC2)C1 [Navitoclax] (partner 0.5 µM)
Method in brief: as §1

[3] = compound: CC1=C(C=C(C=C1)NC(=O)C2=CC(=CC=C2)C(C)(C)C#N)NC3=CC4=C(C=C3)N=CN(C4=O)C [AZ628] + CC1(C)CCC(c2ccc(Cl)cc2)=C(CN2CCN(c3ccc(C(=O)NS(=O)(=O)c4ccc(N[C@H](CCN5CCOCC5)CSc5ccccc5)c(S(=O)(=O)C(F)(F)F)c4)cc3)CC2)C1 [Navitoclax] (partner 0.5 µM)
Method in brief: as §1

[4] = compound: CC1=C(C=C(C=C1)NC(=O)C2=CC(=CC=C2)C(C)(C)C#N)NC3=CC4=C(C=C3)N=CN(C4=O)C [AZ628] + CC(=O)c1c(C)c2cnc(Nc3ccc(N4CCNCC4)cn3)nc2n(C2CCCC2)c1=O [Palbociclib] (partner 0.5 µM)
Method in brief: as §1

## PC-3 [JPC-3]
[1]; first compound 0.08 µM
  relative viability: 1.43
[1]; first compound 0.8 µM
  relative viability: 1.02
[1]; first compound 2.53 µM
  relative viability: 1.04
[1]; first compound 8 µM
  relative viability: 1.04
[2]; first compound 0.08 µM
  relative viability: 0.738
[2]; first compound 0.253 µM
  relative viability: 0.884
[2]; first compound 0.8 µM
  relative viability: 0.771
[2]; first compound 2.53 µM
  relative viability: 0.84
[2]; first compound 8 µM
  relative viability: 0.938
[3]; first compound 0.08 µM
  relative viability: 0.835
[3]; first compound 0.253 µM
  relative viability: 0.782
[3]; first compound 0.8 µM
  relative viability: 0.875
[3]; first compound 2.53 µM
  relative viability: 0.814
[3]; first compound 8 µM
  relative viability: 0.817
[4]; first compound 0.08 µM
  relative viability: 0.505
[4]; first compound 0.253 µM
  relative viability: 0.583
[4]; first compound 0.8 µM
  relative viability: 0.583
[4]; first compound 2.53 µM
  relative viability: 0.597
[4]; first compound 8 µM
  relative viability: 0.6

## NCI-H520
[1]; first compound 0.08 µM
  relative viability: 0.639
[1]; first compound 0.8 µM
  relative viability: 0.613
[1]; first compound 2.53 µM
  relative viability: 0.68
[1]; first compound 8 µM
  relative viability: 0.76
[2]; first compound 0.253 µM
  relative viability: 1.06
[2]; first compound 0.8 µM
  relative viability: 1.23
[2]; first compound 2.53 µM
  relative viability: 1.22
[2]; first compound 8 µM
  relative viability: 1.14
[3]; first compound 0.08 µM
  relative viability: 1.18
[3]; first compound 0.253 µM
  relative viability: 0.842
[3]; first compound 0.8 µM
  relative viability: 1.05
[3]; first compound 2.53 µM
  relative viability: 0.968
[3]; first compound 8 µM
  relative viability: 0.772
[4]; first compound 0.08 µM
  relative viability: 0.21
[4]; first compound 0.253 µM
  relative viability: 0.224
[4]; first compound 0.8 µM
  relative viability: 0.197
[4]; first compound 2.53 µM
  relative viability: 0.254
[4]; first compound 8 µM
  relative viability: 0.199

## HCC-827
[1]; first compound 0.08 µM
  relative viability: 0.256
[1]; first compound 0.8 µM
  relative viability: 0.268
[1]; first compound 2.53 µM
  relative viability: 0.254
[1]; first compound 8 µM
  relative viability: 0.263
[2]; first compound 0.08 µM
  relative viability: 0.987
[2]; first compound 0.253 µM
  relative viability: 1.01
[2]; first compound 0.8 µM
  relative viability: 0.833
[2]; first compound 2.53 µM
  relative viability: 0.944
[2]; first compound 8 µM
  relative viability: 0.899
[3]; first compound 0.08 µM
  relative viability: 0.986
[3]; first compound 0.253 µM
  relative viability: 1
[3]; first compound 0.8 µM
  relative viability: 0.954
[3]; first compound 2.53 µM
  relative viability: 1.02
[3]; first compound 8 µM
  relative viability: 0.811
[4]; first compound 0.08 µM
  relative viability: 0.474
[4]; first compound 0.253 µM
  relative viability: 0.456
[4]; first compound 0.8 µM
  relative viability: 0.357
[4]; first compound 2.53 µM
  relative viability: 0.487
[4]; first compound 8 µM
  relative viability: 0.311

## NCI-H1666
[1]; first compound 0.08 µM
  relative viability: 0.91
[1]; first compound 0.8 µM
  relative viability: 0.854
[1]; first compound 2.53 µM
  relative viability: 0.984
[1]; first compound 8 µM
  relative viability: 0.955
[2]; first compound 0.08 µM
  relative viability: 1.04
[2]; first compound 0.253 µM
  relative viability: 0.868
[2]; first compound 0.8 µM
  relative viability: 0.932
[2]; first compound 2.53 µM
  relative viability: 0.55
[2]; first compound 8 µM
  relative viability: 0.472
[3]; first compound 0.08 µM
  relative viability: 0.865
[3]; first compound 0.253 µM
  relative viability: 0.771
[3]; first compound 0.8 µM
  relative viability: 0.728
[3]; first compound 2.53 µM
  relative viability: 0.772
[3]; first compound 8 µM
  relative viability: 0.513
[4]; first compound 0.08 µM
  relative viability: 0.678
[4]; first compound 0.253 µM
  relative viability: 0.666
[4]; first compound 0.8 µM
  relative viability: 0.683
[4]; first compound 2.53 µM
  relative viability: 0.71
[4]; first compound 8 µM
  relative viability: 0.685

## NCI-H322M
[1]; first compound 0.08 µM
  relative viability: 0.695
[1]; first compound 0.8 µM
  relative viability: 0.582
[1]; first compound 2.53 µM
  relative viability: 0.589
[1]; first compound 8 µM
  relative viability: 0.618
[2]; first compound 0.08 µM
  relative viability: 1.21
[2]; first compound 0.253 µM
  relative viability: 1.21
[2]; first compound 0.8 µM
  relative viability: 1.22
[2]; first compound 2.53 µM
  relative viability: 1.35
[2]; first compound 8 µM
  relative viability: 1.26
[3]; first compound 0.08 µM
  relative viability: 1.34
[3]; first compound 0.253 µM
  relative viability: 1.14
[3]; first compound 0.8 µM
  relative viability: 1.19
[3]; first compound 2.53 µM
  relative viability: 1.24
[3]; first compound 8 µM
  relative viability: 0.914
[4]; first compound 0.08 µM
  relative viability: 0.513
[4]; first compound 0.253 µM
  relative viability: 0.519
[4]; first compound 0.8 µM
  relative viability: 0.466
[4]; first compound 2.53 µM
  relative viability: 0.505
[4]; first compound 8 µM
  relative viability: 0.449

## NCI-H838
[1]; first compound 0.08 µM
  relative viability: 0.272
[1]; first compound 0.8 µM
  relative viability: 0.223
[1]; first compound 2.53 µM
  relative viability: 0.245
[1]; first compound 8 µM
  relative viability: 0.247
[2]; first compound 0.08 µM
  relative viability: 1.11
[2]; first compound 0.253 µM
  relative viability: 1.1
[2]; first compound 0.8 µM
  relative viability: 0.755
[2]; first compound 2.53 µM
  relative viability: 1.2
[2]; first compound 8 µM
  relative viability: 1.02
[3]; first compound 0.08 µM
  relative viability: 1.15
[3]; first compound 0.253 µM
  relative viability: 1.19
[3]; first compound 0.8 µM
  relative viability: 1.1
[3]; first compound 2.53 µM
  relative viability: 1.11
[3]; first compound 8 µM
  relative viability: 0.991
[4]; first compound 0.08 µM
  relative viability: 0.214
[4]; first compound 0.253 µM
  relative viability: 0.205
[4]; first compound 0.8 µM
  relative viability: 0.203
[4]; first compound 2.53 µM
  relative viability: 0.224
[4]; first compound 8 µM
  relative viability: 0.192

## NCI-H2228
[1]; first compound 0.08 µM
  relative viability: 0.379
[1]; first compound 0.8 µM
  relative viability: 0.322
[1]; first compound 2.53 µM
  relative viability: 0.325
[1]; first compound 8 µM
  relative viability: 0.427
[2]; first compound 0.08 µM
  relative viability: 0.852
[2]; first compound 0.253 µM
  relative viability: 1.1
[2]; first compound 0.8 µM
  relative viability: 0.483
[2]; first compound 2.53 µM
  relative viability: 0.756
[2]; first compound 8 µM
  relative viability: 1.29
[3]; first compound 0.08 µM
  relative viability: 0.829
[3]; first compound 0.253 µM
  relative viability: 1.13
[3]; first compound 0.8 µM
  relative viability: 1.03
[3]; first compound 2.53 µM
  relative viability: 1.01
[3]; first compound 8 µM
  relative viability: 0.839
[4]; first compound 0.08 µM
  relative viability: 0.763
[4]; first compound 0.253 µM
  relative viability: 0.605
[4]; first compound 0.8 µM
  relative viability: 0.843
[4]; first compound 2.53 µM
  relative viability: 0.737
[4]; first compound 8 µM
  relative viability: 0.619

## NCI-H647
[1]; first compound 0.08 µM
  relative viability: 0.189
[1]; first compound 0.8 µM
  relative viability: 0.156
[1]; first compound 2.53 µM
  relative viability: 0.166
[1]; first compound 8 µM
  relative viability: 0.146
[2]; first compound 0.08 µM
  relative viability: 1.28
[2]; first compound 0.253 µM
  relative viability: 1.12
[2]; first compound 0.8 µM
  relative viability: 1.07
[2]; first compound 2.53 µM
  relative viability: 1.13
[2]; first compound 8 µM
  relative viability: 1.1
[3]; first compound 0.08 µM
  relative viability: 1.29
[3]; first compound 0.253 µM
  relative viability: 1.1
[3]; first compound 0.8 µM
  relative viability: 1.21
[3]; first compound 2.53 µM
  relative viability: 1.19
[3]; first compound 8 µM
  relative viability: 1.02
[4]; first compound 0.08 µM
  relative viability: 0.493
[4]; first compound 0.253 µM
  relative viability: 0.43
[4]; first compound 0.8 µM
  relative viability: 0.322
[4]; first compound 2.53 µM
  relative viability: 0.357
[4]; first compound 8 µM
  relative viability: 0.289

## NCI-H441
[1]; first compound 0.08 µM
  relative viability: 0.264
[1]; first compound 0.8 µM
  relative viability: 0.239
[1]; first compound 2.53 µM
  relative viability: 0.279
[1]; first compound 8 µM
  relative viability: 0.246
[2]; first compound 0.08 µM
  relative viability: 0.452
[2]; first compound 0.253 µM
  relative viability: 1.04
[2]; first compound 0.8 µM
  relative viability: 0.673
[2]; first compound 2.53 µM
  relative viability: 0.723
[2]; first compound 8 µM
  relative viability: 0.529
[3]; first compound 0.08 µM
  relative viability: 0.565
[3]; first compound 0.253 µM
  relative viability: 0.508
[3]; first compound 0.8 µM
  relative viability: 0.765
[3]; first compound 2.53 µM
  relative viability: 0.902
[3]; first compound 8 µM
  relative viability: 0.633
[4]; first compound 0.08 µM
  relative viability: 0.184
[4]; first compound 0.253 µM
  relative viability: 0.18
[4]; first compound 0.8 µM
  relative viability: 0.147
[4]; first compound 2.53 µM
  relative viability: 0.145
[4]; first compound 8 µM
  relative viability: 0.151
